# Measured values: ChEMBL document CHEMBL1151757, “Synthesis, radiosynthesis, and biological evaluation of fluorine-18-labeled 2beta-carbo(fluoroalkoxy)-3beta-(3'-((Z)-2-haloethenyl)phenyl)nortropanes: candidate radioligands for in vivo imaging of the serotonin transporter with positron emission tomography” (J Med Chem, 2008)
# What was measured:
# [1] = Ratio of drug uptake in pons to cerebellum in anesthetized cynomolgus monkey after 145 mins postinjection; format: ADME, organism-based, Macaca fascicularis; conditions: in vivo
# [2] = Ratio of drug uptake in pons to cerebellum in anesthetized cynomolgus monkey after 225 mins postinjection; format: ADME, organism-based, Macaca fascicularis; conditions: in vivo, 3.75 h
# [3] = Ratio of drug uptake in medulla to cerebellum in anesthetized cynomolgus monkey after 9.5 mins postinjection; format: ADME, organism-based, Macaca fascicularis; conditions: in vivo
# [4] = Ratio of drug uptake in medulla to cerebellum in anesthetized cynomolgus monkey after 18.5 mins postinjection; format: ADME, organism-based, Macaca fascicularis; conditions: in vivo
# [5] = Drug uptake in anesthetized cynomolgus monkey brain occipital lobe after 1.5 mins postinjection; format: ADME, organism-based, Macaca fascicularis; conditions: in vivo, 0.025 h
# [6] = Drug uptake in anesthetized cynomolgus monkey brain occipital lobe after 9.5 mins postinjection; format: ADME, organism-based, Macaca fascicularis; conditions: in vivo
# [7] = Drug uptake in anesthetized cynomolgus monkey brain occipital lobe after 115 mins postinjection; format: ADME, organism-based, Macaca fascicularis; conditions: in vivo
# [8] = Drug uptake in anesthetized cynomolgus monkey brain occipital lobe after 225 mins postinjection; format: ADME, organism-based, Macaca fascicularis; conditions: in vivo, 3.75 h
# [9] = Drug uptake in anesthetized cynomolgus monkey brain frontal lobe after 9.5 mins postinjection; format: ADME, organism-based, Macaca fascicularis; conditions: in vivo
# [10] = Drug uptake in anesthetized cynomolgus monkey brain frontal lobe after 12.5 mins postinjection; format: ADME, organism-based, Macaca fascicularis; conditions: in vivo
# [11] = Drug uptake in anesthetized cynomolgus monkey brain frontal lobe after 65 mins postinjection; format: ADME, organism-based, Macaca fascicularis; conditions: in vivo
# [12] = Drug uptake in anesthetized cynomolgus monkey brain frontal lobe after 85 mins postinjection; format: ADME, organism-based, Macaca fascicularis; conditions: in vivo
# [13] = Drug uptake in anesthetized cynomolgus monkey brain frontal lobe after 115 mins postinjection; format: ADME, organism-based, Macaca fascicularis; conditions: in vivo
# [14] = Drug uptake in anesthetized cynomolgus monkey brain frontal lobe after 125 mins postinjection; format: ADME, organism-based, Macaca fascicularis; conditions: in vivo
# [15] = Drug uptake in anesthetized cynomolgus monkey brain frontal lobe after 165 mins postinjection; format: ADME, organism-based, Macaca fascicularis; conditions: in vivo, 2.75 h
# Thalamus [16] = assay: Drug uptake in anesthetized cynomolgus monkey brain thalamus after 1.5 mins postinjection; format: ADME, organism-based, Macaca fascicularis; conditions: in vivo, 0.025 h
# [17] = Ratio of drug uptake in frontal lobe to cerebellum in anesthetized cynomolgus monkey after 3.5 mins postinjection; format: ADME, organism-based, Macaca fascicularis; conditions: in vivo
# [18] = Ratio of drug uptake in frontal lobe to cerebellum in anesthetized cynomolgus monkey after 95 mins postinjection; format: ADME, organism-based, Macaca fascicularis; conditions: in vivo
# [19] = Ratio of drug uptake in frontal lobe to cerebellum in anesthetized cynomolgus monkey after 145 mins postinjection; format: ADME, organism-based, Macaca fascicularis; conditions: in vivo
# Pons [20] = assay: Drug uptake in anesthetized cynomolgus monkey brain pons after 4.5 mins postinjection; format: ADME, organism-based, Macaca fascicularis; conditions: in vivo, 0.075 h
# Pons [21] = assay: Drug uptake in anesthetized cynomolgus monkey brain pons after 15.5 mins postinjection; format: ADME, organism-based, Macaca fascicularis; conditions: in vivo
# Pons [22] = assay: Drug uptake in anesthetized cynomolgus monkey brain pons after 22.5 mins postinjection; format: ADME, organism-based, Macaca fascicularis; conditions: in vivo, 0.375 h
# Pons [23] = assay: Drug uptake in anesthetized cynomolgus monkey brain pons after 55 mins postinjection; format: ADME, organism-based, Macaca fascicularis; conditions: in vivo
# Medulla [24] = assay: Drug uptake in anesthetized cynomolgus monkey brain medulla after 195 mins postinjection; format: ADME, organism-based, Macaca fascicularis; conditions: in vivo, 3.25 h
# [25] = Drug uptake in anesthetized cynomolgus monkey brain occipital lobe after 205 mins postinjection; format: ADME, organism-based, Macaca fascicularis; conditions: in vivo
# [26] = Drug uptake in anesthetized cynomolgus monkey brain cerebellum after 205 mins postinjection; format: ADME, organism-based, Macaca fascicularis; conditions: in vivo
# [27] = Ratio of drug uptake in frontal lobe to cerebellum in anesthetized cynomolgus monkey after 235 mins postinjection; format: ADME, organism-based, Macaca fascicularis; conditions: in vivo
# Putamen [28] = assay: Drug uptake in anesthetized cynomolgus monkey brain putamen after 195 mins postinjection; format: ADME, organism-based, Macaca fascicularis; conditions: in vivo, 3.25 h
# Pons [29] = assay: Drug uptake in anesthetized cynomolgus monkey brain pons after 135 mins postinjection; format: ADME, organism-based, Macaca fascicularis; conditions: in vivo, 2.25 h
# Pons [30] = assay: Drug uptake in anesthetized cynomolgus monkey brain pons after 225 mins postinjection; format: ADME, organism-based, Macaca fascicularis; conditions: in vivo, 3.75 h
# Medulla [31] = assay: Drug uptake in anesthetized cynomolgus monkey brain medulla after 9.5 mins postinjection; format: ADME, organism-based, Macaca fascicularis; conditions: in vivo
# Medulla [32] = assay: Drug uptake in anesthetized cynomolgus monkey brain medulla after 35 mins postinjection; format: ADME, organism-based, Macaca fascicularis; conditions: in vivo
# Medulla [33] = assay: Drug uptake in anesthetized cynomolgus monkey brain medulla after 45 mins postinjection; format: ADME, organism-based, Macaca fascicularis; conditions: in vivo, 0.75 h
# Medulla [34] = assay: Drug uptake in anesthetized cynomolgus monkey brain medulla after 55 mins postinjection; format: ADME, organism-based, Macaca fascicularis; conditions: in vivo
# Medulla [35] = assay: Drug uptake in anesthetized cynomolgus monkey brain medulla after 65 mins postinjection; format: ADME, organism-based, Macaca fascicularis; conditions: in vivo
# Medulla [36] = assay: Drug uptake in anesthetized cynomolgus monkey brain medulla after 85 mins postinjection; format: ADME, organism-based, Macaca fascicularis; conditions: in vivo
# Medulla [37] = assay: Drug uptake in anesthetized cynomolgus monkey brain medulla after 95 mins postinjection; format: ADME, organism-based, Macaca fascicularis; conditions: in vivo
# [38] = Ratio of drug uptake in putamen to cerebellum in anesthetized cynomolgus monkey after 0.5 mins postinjection; format: ADME, organism-based, Macaca fascicularis; conditions: in vivo
# [39] = Ratio of drug uptake in putamen to cerebellum in anesthetized cynomolgus monkey after 6.5 mins postinjection; format: ADME, organism-based, Macaca fascicularis; conditions: in vivo
# Medulla [40] = assay: Drug uptake in anesthetized cynomolgus monkey brain medulla after 125 mins postinjection; format: ADME, organism-based, Macaca fascicularis; conditions: in vivo
# Medulla [41] = assay: Drug uptake in anesthetized cynomolgus monkey brain medulla after 175 mins postinjection; format: ADME, organism-based, Macaca fascicularis; conditions: in vivo
# [42] = Drug uptake in anesthetized cynomolgus monkey brain cerebellum after 9.5 mins postinjection; format: ADME, organism-based, Macaca fascicularis; conditions: in vivo
# [43] = Drug uptake in anesthetized cynomolgus monkey brain cerebellum after 27.5 mins postinjection; format: ADME, organism-based, Macaca fascicularis; conditions: in vivo
# [44] = Drug uptake in anesthetized cynomolgus monkey brain cerebellum after 85 mins postinjection; format: ADME, organism-based, Macaca fascicularis; conditions: in vivo
# [45] = Drug uptake in anesthetized cynomolgus monkey brain cerebellum after 115 mins postinjection; format: ADME, organism-based, Macaca fascicularis; conditions: in vivo
# [46] = Drug uptake in anesthetized cynomolgus monkey brain cerebellum after 135 mins postinjection; format: ADME, organism-based, Macaca fascicularis; conditions: in vivo, 2.25 h
# [47] = Ratio of drug uptake in putamen to cerebellum in anesthetized cynomolgus monkey after 65 mins postinjection; format: ADME, organism-based, Macaca fascicularis; conditions: in vivo
# [48] = Ratio of drug uptake in thalamus to cerebellum in anesthetized cynomolgus monkey after 9.5 mins postinjection; format: ADME, organism-based, Macaca fascicularis; conditions: in vivo
# [49] = Ratio of drug uptake in thalamus to cerebellum in anesthetized cynomolgus monkey after 95 mins postinjection; format: ADME, organism-based, Macaca fascicularis; conditions: in vivo
# Caudate [50] = assay: Drug uptake in anesthetized cynomolgus monkey brain caudate after 2.5 mins postinjection; format: ADME, organism-based, Macaca fascicularis, Caudate nucleus; conditions: in vivo
# Caudate [51] = assay: Drug uptake in anesthetized cynomolgus monkey brain caudate after 9.5 mins postinjection; format: ADME, organism-based, Macaca fascicularis, Caudate nucleus; conditions: in vivo
# Caudate [52] = assay: Drug uptake in anesthetized cynomolgus monkey brain caudate after 27.5 mins postinjection; format: ADME, organism-based, Macaca fascicularis, Caudate nucleus; conditions: in vivo
# Caudate [53] = assay: Drug uptake in anesthetized cynomolgus monkey brain caudate after 75 mins postinjection; format: ADME, organism-based, Macaca fascicularis, Caudate nucleus; conditions: in vivo, 1.25 h
# Caudate [54] = assay: Drug uptake in anesthetized cynomolgus monkey brain caudate after 95 mins postinjection; format: ADME, organism-based, Macaca fascicularis, Caudate nucleus; conditions: in vivo
# Caudate [55] = assay: Drug uptake in anesthetized cynomolgus monkey brain caudate after 235 mins postinjection; format: ADME, organism-based, Macaca fascicularis, Caudate nucleus; conditions: in vivo
# Putamen [56] = assay: Drug uptake in anesthetized cynomolgus monkey brain putamen after 1.5 mins postinjection; format: ADME, organism-based, Macaca fascicularis; conditions: in vivo, 0.025 h
# Thalamus [57] = assay: Drug uptake in anesthetized cynomolgus monkey brain thalamus after 2.5 mins postinjection; format: ADME, organism-based, Macaca fascicularis; set-up: unit not given here; conditions: in vivo
# Thalamus [58] = assay: Drug uptake in anesthetized cynomolgus monkey brain thalamus after 6.5 mins postinjection; format: ADME, organism-based, Macaca fascicularis; set-up: unit not given here; conditions: in vivo
# Putamen [59] = assay: Drug uptake in anesthetized cynomolgus monkey brain putamen after 27.5 mins postinjection; format: ADME, organism-based, Macaca fascicularis; set-up: unit not given here; conditions: in vivo
# Putamen [60] = assay: Drug uptake in anesthetized cynomolgus monkey brain putamen after 55 mins postinjection; format: ADME, organism-based, Macaca fascicularis; set-up: unit not given here; conditions: in vivo
# Putamen [61] = assay: Drug uptake in anesthetized cynomolgus monkey brain putamen after 75 mins postinjection; format: ADME, organism-based, Macaca fascicularis; set-up: unit not given here; conditions: in vivo, 1.25 h
# Putamen [62] = assay: Drug uptake in anesthetized cynomolgus monkey brain putamen after 95 mins postinjection; format: ADME, organism-based, Macaca fascicularis; set-up: unit not given here; conditions: in vivo
# Thalamus [63] = assay: Drug uptake in anesthetized cynomolgus monkey brain thalamus after 115 mins postinjection; format: ADME, organism-based, Macaca fascicularis; set-up: unit not given here; conditions: in vivo
# Thalamus [64] = assay: Drug uptake in anesthetized cynomolgus monkey brain thalamus after 125 mins postinjection; format: ADME, organism-based, Macaca fascicularis; set-up: unit not given here; conditions: in vivo
# Thalamus [65] = assay: Drug uptake in anesthetized cynomolgus monkey brain thalamus after 235 mins postinjection; format: ADME, organism-based, Macaca fascicularis; set-up: unit not given here; conditions: in vivo
# Midbrain [66] = assay: Drug uptake in anesthetized cynomolgus monkey brain midbrain after 95 mins postinjection; format: ADME, organism-based, Macaca fascicularis; set-up: unit not given here; conditions: in vivo
# Midbrain [67] = assay: Drug uptake in anesthetized cynomolgus monkey brain midbrain after 105 mins postinjection; format: ADME, organism-based, Macaca fascicularis; set-up: unit not given here; conditions: in vivo, 1.75 h
# Midbrain [68] = assay: Drug uptake in anesthetized cynomolgus monkey brain midbrain after 115 mins postinjection; format: ADME, organism-based, Macaca fascicularis; set-up: unit not given here; conditions: in vivo
smiles,measurement,setting,value
O=C(OCCC[18F])C1C2CCC(CC1c1cccc(/C=C\I)c1)N2 (stereo not drawn),Ratio,[1],1.6
same,Ratio,[2],1.7
same,Ratio,[3],0.9
same,Ratio,[4],1
same,Drug uptake,[5],0.19
same,Drug uptake,[6],3.14
same,Drug uptake,[7],3.09
same,Drug uptake,[8],2.09
same,Drug uptake,[9],2.11
same,Drug uptake,[10],2.24
same,Drug uptake,[11],2.77
same,Drug uptake,[12],2.71
same,Drug uptake,[13],2.56
same,Drug uptake,[14],2.54
same,Drug uptake,[15],2.08
same,Drug uptake,Thalamus [16],0.24
same,Ratio,[17],0.4
same,Ratio,[18],0.8
same,Ratio,[19],1
same,Drug uptake,Pons [20],1.92
same,Drug uptake,Pons [21],3.62
same,Drug uptake,Pons [22],4.1
same,Drug uptake,Pons [23],4.4
same,Drug uptake,Medulla [24],3.78
same,Drug uptake,[25],2.3
same,Drug uptake,[26],1.91
same,Ratio,[27],0.9
same,Drug uptake,Putamen [28],3.39
same,Drug uptake,Pons [29],4.08
same,Drug uptake,Pons [30],3.11
same,Drug uptake,Medulla [31],3.97
same,Drug uptake,Medulla [32],5.04
same,Drug uptake,Medulla [33],5.13
same,Drug uptake,Medulla [34],5.06
same,Drug uptake,Medulla [35],4.96
same,Drug uptake,Medulla [36],4.79
same,Drug uptake,Medulla [37],4.93
same,Ratio,[38],1.5
same,Ratio,[39],0.8
same,Drug uptake,Medulla [40],4.54
same,Drug uptake,Medulla [41],4.08
same,Drug uptake,[42],4.24
same,Drug uptake,[43],4.8
same,Drug uptake,[44],3.6
same,Drug uptake,[45],3.1
same,Drug uptake,[46],2.66
same,Ratio,[47],1.2
same,Ratio,[48],0.8
same,Ratio,[49],1.3
same,Drug uptake,Caudate [50],0.64
same,Drug uptake,Caudate [51],2.7
same,Drug uptake,Caudate [52],3.68
same,Drug uptake,Caudate [53],4.05
same,Drug uptake,Caudate [54],3.82
same,Drug uptake,Caudate [55],2.41
same,Drug uptake,Putamen [56],0.27
same,Drug uptake,Thalamus [57],0.8
same,Drug uptake,Thalamus [58],3.06
same,Drug uptake,Putamen [59],4.9
same,Drug uptake,Putamen [60],5.03
same,Drug uptake,Putamen [61],4.92
same,Drug uptake,Putamen [62],4.67
same,Drug uptake,Thalamus [63],4.24
same,Drug uptake,Thalamus [64],4.15
same,Drug uptake,Thalamus [65],2.78
same,Drug uptake,Midbrain [66],4.77
same,Drug uptake,Midbrain [67],4.82
same,Drug uptake,Midbrain [68],4.76
